Type in all cases: in vivo, rat
The test system of one test is paw withdrawal threshold. Put plainly: von Frey testing for tactile hypersensitivity after SNL. As to conditions: for withdrawal threshold of the ipsilateral hindpaw: TUDCA 300 mg/kg i.p. An excerpt:
(§1) Rats were divided into two experimental groups: a group in which the L5 spinal nerve was ligated and cut, and a sham-operated control group. The left L5 spinal nerve was isolated, tightly ligated and cut distal to the ligation under isoflurane anesthesia (1.5%). The surgical procedure for the sham-operated group was identical to that of the SNL group, except that the L5 spinal nerve was not ligated or cut. General behavior of the rats was monitored before and after the surgery. Any rats showing difficulty elevating a hindpaw were discarded from the study.
(§2) Rats were treated with 5,7-dihydroxytryptamine (5,7-DHT: 100 μg/10 μl, intracisternal injection) to induce loss of RVM serotonergic neurons. Rats were randomly assigned to one of four groups for these experiments: (1) L5 SNL with 5,7-DHT; (2) L5 SNL with vehicle injection; (3) sham with 5,7-DHT; and (4) sham with vehicle. Injections were given ten days after surgery; animals receiving vehicle injections received sterile saline (10 μl, intracisternal injection). To prevent damage to noradrenergic (NE) neurons, the inventors pre-treated animals 30 minutes before 5,7-DHT and saline administration with desipramine (20 mg/kg i.p.), an inhibitor of neuronal NE reuptake. To test the effects of inhibiting apoptosis on SNL, the inventors administered a systemically active inhibitor of apoptosis, tauroursodeoxycholic acid (TUDCA) (300 mg/kg i.p. or saline prior to and after surgery. For each group, injections were given every-other day, starting 3 days prior to surgery and continuing until sacrifice. To confirm the efficacy of TUDCA, the inventors tested its effects on dexamethasone-induced apoptosis in thymus. Two TUDCA injections (300 mg/kg i.p.) were given: one to two days prior to dexamethasone (1 mg/kg i.p.) administration and one the day of dexamethasone administration. Control animals were given saline injections instead of TUDCA solution. Rats were killed one day after dexamethasone administration.
Mechanical sensitivity was determined by measuring the paw withdrawal threshold in response to the application of von Frey filaments, using the up-down method of Chaplan. In brief, rats were placed on a wire mesh surface, covered by an inverted plastic cage and allowed to habituate for 15 min. Filaments were then applied to the plantar surface of the hindpaw. If application of the filament evoked no response, the next-larger filament was applied; if application elicited withdrawal, the next-smaller filament was applied. This sequence was repeated until the largest filament was used or until four filaments were applied after the first withdrawal was noted. Withdrawal thresholds were measured prior to surgery and at 2-3 day intervals after surgery. In all cases, thresholds were measured bilaterally.

For a further test, the system named is thymus. Kind of test: dexamethasone-induced apoptosis in thymus (caspase-3 labeling). The conditions noted are these: TUDCA 300 mg/kg i.p., two injections; dexamethasone 1 mg/kg i.p. As for the experimental part:
as §2, with “Rats were killed one day after dexamethasone administration.” left out

The next test concerns RVM neurons. Put plainly: number of RVM neurons after spinal nerve ligation (SNL), stereological cell counting.
Source text: as §1, §2
(§3) The RVM and spinal cord were sectioned using a freezing microtome (Leica, SM2400) at a nominal thickness of 50 μm. […]

For the next test, the system named is RVM 5-HT neurons. Kind of test: number of RVM 5-HT (TPH-ir) neurons after SNL, stereological cell counting.
Source text: as §1, §2, §3

In a further test the test system is RVM glia. Kind of test: number of RVM glia after SNL (Nissl-stained tissue). As to conditions: SNL rats.
Source text: as §1, §2
Conventional microscopy was used to collect images of the RVM for cell counting. An Olympus BX50 fluorescence microscope (Tokyo, Japan) equipped with filter sets designed to allow selective visualization of Cy2 and Cy3 was used. Microscopic images were collected with a Scion 1346 digital camera. Confocal images were collected using an Olympus FluoView FV1000 microscope (Tokyo, Japan). ImageJ 1.29 (developed at NIH and available at http://rsb.info.nih.gov/ij/) or Photoshop were used to adjust contrast and brightness in images. […]
stereological methods were used for quantification as described previously. […] The sampling interval thereafter was determined based on the number of sections within the RVM and was usually every sixth section. […]

For the compound `NCCc1c[nH]c2c(O)cc(O)cc12` [5,7-DHT, 5,7-dihydroxytryptamine], in the test with paw withdrawal threshold (5,7-DHT 100 μg/10 μl intracisternal injection ten days after surgery), the “mechanical hypersensitivity after SNL” value was “partially reversed”.
Take `C[C@H](CCC(=O)NCCS(=O)(=O)O)[C@H]1CC[C@H]2[C@@H]3[C@@H](O)C[C@@H]4C[C@H](O)CC[C@]4(C)[C@H]3CC[C@]12C` [TUDCA, tauroursodeoxycholic acid]: the “caspase-3 labeling in thymus compared to dexamethasone alone” value in the test on thymus is on record as “marked decrease”. In the test with RVM neurons (SNL rats, TUDCA 300 mg/kg i.p. every-other day, ipsilateral, vehicle 12,540±930), the “number of RVM neurons ipsilateral to the lesion” value is 17,976±1,202. Also, the “number of RVM neurons contralateral to SNL” value with RVM neurons (SNL rats, TUDCA 300 mg/kg i.p., contralateral, saline 16,949±1,074) is on record as 16,675±828. The “number of RVM neurons ipsilateral, higher than in vehicle-treated SNL rats” value with RVM neurons (ipsilateral, p<0.05, n=8) is reported as 43%. In addition, the “withdrawal threshold of the ipsilateral hindpaw” value in the test on paw withdrawal threshold (Day 4 post-SNL, vehicle 1.1±0.3 g) came out at 3.5 ± 0.5 g; in the test with paw withdrawal threshold (Day 6 post-SNL, vehicle 1.3±0.2 g) it was 4.0 ± 0.5 g; in the test on paw withdrawal threshold (Day 8 post-SNL, vehicle 1.2±0.3 g), 4.6 ± 1.1 g; with paw withdrawal threshold (Day 10 post-SNL, vehicle 1.2±0.2 g), 5.2 ± 1.3 g. The SNL-induced mechanical hypersensitivity result with paw withdrawal threshold (TUDCA 300 mg/kg i.p. every-other day) is on record as “partially reversed”. Also, in the test with paw withdrawal threshold (one-to-three days after SNL, TUDCA), the “tactile hypersensitivity one-to-three days after SNL” value is recorded as “does not reduce hypersensitivity”. For the same compound, the “number of RVM 5-HT neurons contralateral to SNL” value in the test with RVM 5-HT neurons (SNL rats, TUDCA 300 mg/kg i.p., contralateral) was 1,251±99. Moreover, the “number of RVM 5-HT neurons ipsilateral to SNL” value in the test with RVM 5-HT neurons (SNL rats, TUDCA 300 mg/kg i.p., ipsilateral, vehicle 1,043±118) is listed as 1,353±96. In addition, the “number of RVM 5-HT neurons ipsilateral, higher than in vehicle-treated rats” value with RVM 5-HT neurons (ipsilateral, p<0.05, n=8) turned out to be 30%. In addition, the “number of RVM glia contralateral after SNL” value with RVM glia (TUDCA, contralateral, vehicle 80,086±2,899) is on record as 60,437±4,315. For the same compound, the “number of RVM glia ipsilateral after SNL” value with RVM glia (TUDCA, ipsilateral, vehicle 85,541±2,972) is reported as 62,306±3,736. Moreover, in the test on RVM glia (contralateral, p<0.05), the “RVM glia contralateral, fewer than vehicle” value was found to be 25%. Moreover, the “RVM glia ipsilateral, fewer than vehicle” value with RVM glia (ipsilateral, p<0.05, n=7 TUDCA, n=6 vehicle) worked out at 27%.

Source of the values: patent US9632075B2, “Prevention or attenuation of neuropathic pain by bile acids” (Metselex, Inc., priority 2011, dated 2017).
